{"source": "PubChem BioAssay AID1963858", "about": "(Molecular Pharmacology Branch, DTP, NCI, 2024)", "test_system": "HOP-62 multicell spheroids with HUVEC/MSC, viability", "experiment": "Anticancer human tumor HOP-62 cell line growth inhibition [KRAS2];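 also: viability read after a week of compound exposure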;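 as to viability, T/C: 100% = DMSO vehicle-treated spheroids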", "settings": "for viability, T/C: stronger effect = lower value", "procedure,_shortened": "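KRAS-mutant tumor cells were grown as spheroids with HUVEC endothelial cells and human MSCs as stroma. Targeted agents were tested alone and with KRAS pathway inhibitors. Doses started at or near clinical Cmax, or 10 microM, descending half-log.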", "key": {"[1]": {"settings": "curve of first compound, second compound 0.1 µM"}, "[2]": {"settings": "curve of first compound, second compound 0.316 µM"}, "[3]": {"settings": "curve of first compound, second compound 1 µM"}, "[4]": {"settings": "curve of first compound, second compound 3.16 µM"}, "[5]": {"settings": "second compound 0.1 µM, first compound 0.000316 µM"}, "[6]": {"settings": "second compound 0.1 µM, first compound 0.001 µM"}, "[7]": {"settings": "second compound 0.1 µM, first compound 0.00316 µM"}, "[8]": {"settings": "second compound 0.1 µM, first compound 0.01 µM"}, "[9]": {"settings": "second compound 0.1 µM, first compound 0.0316 µM"}, "[10]": {"settings": "second compound 0.1 µM, first compound 0.1 µM"}, "[11]": {"settings": "second compound 0.316 µM, first compound 0.000316 µM"}, "[12]": {"settings": "second compound 0.316 µM, first compound 0.001 µM"}, "[13]": {"settings": "second compound 0.316 µM, first compound 0.00316 µM"}, "[14]": {"settings": "second compound 0.316 µM, first compound 0.01 µM"}, "[15]": {"settings": "second compound 0.316 µM, first compound 0.0316 µM"}, "[16]": {"settings": "second compound 0.316 µM, first compound 0.1 µM"}, "[17]": {"settings": "second compound 1 µM, first compound 0.000316 µM"}, "[18]": {"settings": "second compound 1 µM, first compound 0.001 µM"}, "[19]": {"settings": "second compound 1 µM, first compound 0.00316 µM"}, "[20]": {"settings": "second compound 1 µM, first compound 0.01 µM"}, "[21]": {"settings": "second compound 1 µM, first compound 0.0316 µM"}, "[22]": {"settings": "second compound 1 µM, first compound 0.1 µM"}, "[23]": {"settings": "second compound 3.16 µM, first compound 0.000316 µM"}, "[24]": {"settings": "second compound 3.16 µM, first compound 0.001 µM"}, "[25]": {"settings": "second compound 3.16 µM, first compound 0.00316 µM"}, "[26]": {"settings": "second compound 3.16 µM, first compound 0.01 µM"}, "[27]": {"settings": "second compound 3.16 µM, first compound 0.0316 µM"}, "[28]": {"settings": "second compound 3.16 µM, first compound 0.1 µM"}}, "note": "“And” between values parts separate entries of the source, which are not always exact repeats. Identical values can stand only once."}
{"molecule": "Cn1ncnc1[C@H]1c2n[nH]c(=O)c3cc(F)cc(c23)N[C@@H]1c1ccc(F)cc1", "note": "+ C=CC(=O)N1CCN(c2nc(OCC3CCCN3C)nc3c2CCN(c2cccc4cccc(C)c24)C3)CC1CC#N", "values": [{"measurement": "IC50", "setting": "curve of first compound, second compound 0.0316 µM", "value": "> 100", "unit": "nM"}, {"measurement": "IC50", "setting": "[1]", "value": 9.86, "unit": "nM"}, {"measurement": "IC50", "setting": "[2]", "value": "< 0.316", "unit": "nM"}, {"measurement": "IC50", "setting": "[3]", "value": "< 0.316", "unit": "nM"}, {"measurement": "IC50", "setting": "[4]", "value": "< 0.316", "unit": "nM"}, {"measurement": "viability, T/C", "setting": "second compound 0.0316 µM, first compound 0.000316 µM", "value": 88.8, "unit": "%"}, {"measurement": "viability, T/C", "setting": "second compound 0.0316 µM, first compound 0.001 µM", "value": 79.7, "unit": "%"}, {"measurement": "viability, T/C", "setting": "second compound 0.0316 µM, first compound 0.00316 µM", "value": 82.3, "unit": "%"}, {"measurement": "viability, T/C", "setting": "second compound 0.0316 µM, first compound 0.01 µM", "value": 75.7, "unit": "%"}, {"measurement": "viability, T/C", "setting": "second compound 0.0316 µM, first compound 0.0316 µM", "value": 74.3, "unit": "%"}, {"measurement": "viability, T/C", "setting": "second compound 0.0316 µM, first compound 0.1 µM", "value": 59.7, "unit": "%"}, {"measurement": "viability, T/C", "setting": "[5]", "value": 64.6, "unit": "%"}, {"measurement": "viability, T/C", "setting": "[6]", "value": 58.3, "unit": "%"}, {"measurement": "viability, T/C", "setting": "[7]", "value": 74, "unit": "%"}, {"measurement": "viability, T/C", "setting": "[8]", "value": 49.8, "unit": "%"}, {"measurement": "viability, T/C", "setting": "[9]", "value": 41.9, "unit": "%"}, {"measurement": "viability, T/C", "setting": "[10]", "value": 44.7, "unit": "%"}, {"measurement": "viability, T/C", "setting": "[11]", "value": 48.7, "unit": "%"}, {"measurement": "viability, T/C", "setting": "[12]", "value": 42, "unit": "%"}, {"measurement": "viability, T/C", "setting": "[13]", "value": 40.6, "unit": "%"}, {"measurement": "viability, T/C", "setting": "[14]", "value": 38.5, "unit": "%"}, {"measurement": "viability, T/C", "setting": "[15]", "value": 30.6, "unit": "%"}, {"measurement": "viability, T/C", "setting": "[16]", "value": 33, "unit": "%"}, {"measurement": "viability, T/C", "setting": "[17]", "value": 32.4, "unit": "%"}, {"measurement": "viability, T/C", "setting": "[18]", "value": 30.2, "unit": "%"}, {"measurement": "viability, T/C", "setting": "[19]", "value": 27.1, "unit": "%"}, {"measurement": "viability, T/C", "setting": "[20]", "value": 25.7, "unit": "%"}, {"measurement": "viability, T/C", "setting": "[21]", "value": 24.8, "unit": "%"}, {"measurement": "viability, T/C", "setting": "[22]", "value": 22.1, "unit": "%"}, {"measurement": "viability, T/C", "setting": "[23]", "value": 0.61, "unit": "%"}, {"measurement": "viability, T/C", "setting": "[24]", "value": 0.57, "unit": "%"}, {"measurement": "viability, T/C", "setting": "[25]", "value": 0.44, "unit": "%"}, {"measurement": "viability, T/C", "setting": "[26]", "value": 0.5, "unit": "%"}, {"measurement": "viability, T/C", "setting": "[27]", "value": 0.51, "unit": "%"}, {"measurement": "viability, T/C", "setting": "[28]", "value": 0.71, "unit": "%"}]}
{"molecule": "Cn1ncnc1[C@H]1c2n[nH]c(=O)c3cc(F)cc(c23)N[C@@H]1c1ccc(F)cc1", "values": [{"measurement": "viability, T/C", "setting": "compound 0.000316 µM", "value": "105% [middle of 5 runs]"}, {"measurement": "viability, T/C", "setting": "compound 0.001 µM", "value": "102% (2×) and 95.9% and 103% (2×)"}, {"measurement": "viability, T/C", "setting": "compound 0.00316 µM", "value": "103% [middle of 5 runs]"}, {"measurement": "viability, T/C", "setting": "compound 0.01 µM", "value": "99.4% [middle of 5 runs]"}, {"measurement": "viability, T/C", "setting": "compound 0.0316 µM", "value": "98% [middle of 5 runs]"}, {"measurement": "viability, T/C", "setting": "compound 0.1 µM", "value": "85.3% [middle of 5 runs]"}, {"measurement": "IC50", "setting": "curve of compound", "value": "> 100", "unit": "nM"}]}
{"molecule": "Cn1ncnc1[C@H]1c2n[nH]c(=O)c3cc(F)cc(c23)N[C@@H]1c1ccc(F)cc1", "note": "+ CNCc1ccccc1-c1csc(C(C)Nc2nc(C)nc3cc(OC)c(OC)cc23)c1", "values": [{"measurement": "IC50", "setting": "[1]", "value": "> 100", "unit": "nM"}, {"measurement": "IC50", "setting": "[2]", "value": "> 100", "unit": "nM"}, {"measurement": "IC50", "setting": "[3]", "value": "> 100", "unit": "nM"}, {"measurement": "IC50", "setting": "[4]", "value": "< 0.316", "unit": "nM"}, {"measurement": "IC50", "setting": "curve of first compound, second compound 10 µM", "value": "< 0.316", "unit": "nM"}, {"measurement": "viability, T/C", "setting": "[5]", "value": 98.2, "unit": "%"}, {"measurement": "viability, T/C", "setting": "[6]", "value": 92.1, "unit": "%"}, {"measurement": "viability, T/C", "setting": "[7]", "value": 91.8, "unit": "%"}, {"measurement": "viability, T/C", "setting": "[8]", "value": 97.1, "unit": "%"}, {"measurement": "viability, T/C", "setting": "[9]", "value": 86.5, "unit": "%"}, {"measurement": "viability, T/C", "setting": "[10]", "value": 71, "unit": "%"}, {"measurement": "viability, T/C", "setting": "[11]", "value": 101, "unit": "%"}, {"measurement": "viability, T/C", "setting": "[12]", "value": 93.9, "unit": "%"}, {"measurement": "viability, T/C", "setting": "[13]", "value": 89.4, "unit": "%"}, {"measurement": "viability, T/C", "setting": "[14]", "value": 83.7, "unit": "%"}, {"measurement": "viability, T/C", "setting": "[15]", "value": 79.3, "unit": "%"}, {"measurement": "viability, T/C", "setting": "[16]", "value": 74.9, "unit": "%"}, {"measurement": "viability, T/C", "setting": "[17]", "value": 69.2, "unit": "%"}, {"measurement": "viability, T/C", "setting": "[18]", "value": 73, "unit": "%"}, {"measurement": "viability, T/C", "setting": "[19]", "value": 81.2, "unit": "%"}, {"measurement": "viability, T/C", "setting": "[20]", "value": 78.1, "unit": "%"}, {"measurement": "viability, T/C", "setting": "[21]", "value": 68.9, "unit": "%"}, {"measurement": "viability, T/C", "setting": "[22]", "value": 53.7, "unit": "%"}, {"measurement": "viability, T/C", "setting": "[23]", "value": 0.2, "unit": "%"}, {"measurement": "viability, T/C", "setting": "[24]", "value": 0.14, "unit": "%"}, {"measurement": "viability, T/C", "setting": "[25]", "value": 0.99, "unit": "%"}, {"measurement": "viability, T/C", "setting": "[26]", "value": 0.21, "unit": "%"}, {"measurement": "viability, T/C", "setting": "[27]", "value": 2.25, "unit": "%"}, {"measurement": "viability, T/C", "setting": "[28]", "value": 5.87, "unit": "%"}, {"measurement": "viability, T/C", "setting": "second compound 10 µM, first compound 0.000316 µM", "value": 0.12, "unit": "%"}, {"measurement": "viability, T/C", "setting": "second compound 10 µM, first compound 0.001 µM", "value": 0.17, "unit": "%"}, {"measurement": "viability, T/C", "setting": "second compound 10 µM, first compound 0.00316 µM", "value": 0.16, "unit": "%"}, {"measurement": "viability, T/C", "setting": "second compound 10 µM, first compound 0.01 µM", "value": 0.15, "unit": "%"}, {"measurement": "viability, T/C", "setting": "second compound 10 µM, first compound 0.0316 µM", "value": 0.68, "unit": "%"}, {"measurement": "viability, T/C", "setting": "second compound 10 µM, first compound 0.1 µM", "value": 0.19, "unit": "%"}]}
